Assay [1] concerns C. albicans wild-type clinical isolate CA14. Kind of assay: C. albicans susceptibility testing (CLSI broth microdilution MIC), strain CA14. It counts as cell-based, Candida albicans. The settings on record: RPMI 1640, 37 °C, read at 48 h; for MIC: Candida albicans. From the text: (§1) Each novel compound was screened against C. albicans wild-type clinical isolate CA14 and C. albicans laboratory strain SC5314 using the standardised CLSI M27-S4 broth dilution method.[28] […] This might be explained by the clog P data as the more lipophilic compounds should more readily penetrate the fungal membrane resulting in improved uptake or may relate to optimal fill of the small hydrophobic pocket leading to improved binding.
(§2) Antifungal MIC values were obtained according to the CLSI microdilution method for yeasts.[28]C. albicans strains CA14 and SC5314 were tested in triplicate. Cultures were diluted to 2.5 × 10^3 cells per mL in RPMI 1640 (Sigma), buffered with 0.165 M MOPS, pH 7.0. Antifungal compounds were dissolved in DMSO and added at a final concentration of 1% v/v DMSO. Plates were incubated at 37 °C and read at 48 h.

The subject of assay [2] is C. albicans laboratory strain SC5314. As to the kind of experiment: C. albicans susceptibility testing (CLSI broth microdilution MIC), strain SC5314. It counts as cell-based, Candida albicans. The settings on record: RPMI 1640, 37 °C, read at 48 h; for MIC: Candida albicans, SC5314, 48 h.
Source text: as §1, §2
(Dilution methods test growth across graded concentrations, often in twofold steps.)

In assay [3] the target is T1, C. albicans CYP51 (CaCYP51) (Candida albicans, UniProt P10613).
T1 construct: made in house; host or cells: E. coli
Kind of assay: CaCYP51 reconstitution assay (IC50). It counts as biochemical. Particulars: 1 μM CaCYP51, 60 μM lanosterol, 15 min at 37 °C. As to the method: Derivatives with a MIC <1 μg mL^−1 were chosen for IC50 testing.
C. albicans CYP51 was overexpressed in E. coli and purified and CaCYP51 reconstitutions assays performed.[10,37] The final reaction volume of 500 μL, contained; 1 μM C. albicans CYP51, 2 μM Homo sapiens cytochrome P450 reductase (CPR) (UniProtKB accession number P16435), 60 μM lanosterol, 50 μM dilaurylphosphatidylcholine, 4% w/v 2-hydroypropyl-cyclodextrin, 0.4 mg mL^−1 isocitrate dehydrogenase, 25 mM trisodium isocitrate, 50 mM NaCl, 5 mM MgCl2, and 40 mM MOPS (morpholinepropanesulfonic acid, pH 7.2). Antifungal compounds were added in 2.5 μL DMSO. The reaction was started by the addition of 4 mM NADPH-tetrasodium salt. Samples were shaken for 15 min at 37 °C and sterol metabolites extracted with ethyl acetate and derivatised with BSTFA.

The target of a further assay is T2, native CaCYP51 (Candida albicans, UniProt P10613).
T2 construct: made in house; host or cells: E. coli
Kind of assay: CaCYP51 type II ligand binding affinity (Kd) from difference spectra saturation curves. The settings on record: 2.5 μM native CaCYP51; mean ± SD of three titrations; read-out: K d. On the procedure: Azole titration was performed in triplicate.
The ligand–CaCYP51 complex was determined by non-linear regression (Levenberg–Marquardt algorithm) using a rearrangement of the Morrison equation for tight ligand binding,[38] while weak ligand binding was calculated by the Michaelis–Menten equation. Curve fitting for novel azole saturation curves was performed using the computer program ProFit 6.1.12 (QuantumSoft, Zurich, Switzerland) for Mac OSX. Kd values were determined for each of the three replicate titrations per azole compound and then mean Kd values and standard deviations calculated.

Assay [4] concerns S. cerevisiae Y2411 parent (control levels of wild-type ScCYP51). Kind of assay: MIC, recombinant S. cerevisiae strain Y2411 parent. The format is cell-based. Particulars: Saccharomyces cerevisiae; SD medium pH 6.8, 30 °C; 80% inhibition of growth; read-out: MIC Y2411 parent. As to the method:
(§3) The most promising thiazole derivative 7b, and the extended amide derivatives 13a and 13b were evaluated against a panel of recombinant S. cerevisiae strains[24,31,32] expressing control levels of wild-type CYP51 (ScCYP51), overexpressed wild-type ScCYP51, overexpressed azole-resistant ScCYP51 Y140F/H mutations (S. cerevisiae Y140 equivalent to C. albicans Y132), overexpressed C. albicans efflux pumps MDR1a or CDR1B and overexpressed H. sapiens wild-type CYP51 (HsCYP51) (Table 3) at 24 and 48 h with each assay performed in triplicate.
(§4) Minimum inhibitory concentration (MIC) were determined according to recommendations outlined in the Clinical and Laboratory Standards Institute (CLSI) document M27-Ed4E[39] with modifications. Sabouraud dextrose (SD) medium (pH 6.8) was used instead of RPMI-1640 for inoculum and growth of the S. cerevisiae strains and cultures were incubated at 30 °C. […] Stock solutions of each agent were prepared in DMSO and the final concentration of DMSO was 1% (v/v) in SD. […] The final concentration of all other compounds ranged from 0.03–16 μg mL^−1. Three biological repeats were performed.

For assay [5], the system named is S. cerevisiae Y2300 overexpressed wild-type ScCYP51. As to the kind of experiment: MIC, recombinant S. cerevisiae strain Y2300 ScCYP51. It counts as cell-based. Particulars: Saccharomyces cerevisiae; SD medium pH 6.8, 30 °C; 80% inhibition of growth; read-out: MIC Y2300 ScCYP51. As to the method:
as §3, §4

The subject of assay [6] is S. cerevisiae Y2301 overexpressed ScCYP51 Y140F. As to the kind of experiment: MIC, recombinant S. cerevisiae strain Y2301 Y140F. It counts as cell-based. Particulars: Saccharomyces cerevisiae, pH 6.8, read-out: MIC Y2301 Y140F. As to the method:
as §3, §4

Assay [7] concerns S. cerevisiae Y2513 overexpressed ScCYP51 Y140H. Kind of assay: MIC, recombinant S. cerevisiae strain Y2513 Y140H. It counts as cell-based. Particulars: Saccharomyces cerevisiae, pH 6.8, read-out: MIC Y2513 Y140H. As to the method:
as §3, §4

Assay [8] concerns S. cerevisiae Y525 overexpressing C. albicans MFS transporter MDR1a. Kind of assay: MIC, recombinant S. cerevisiae strain Y525 CaMDR1a. The format is cell-based. The settings on record: SD medium pH 6.8, 30 °C; 80% inhibition of growth. On the procedure:
as §4

Assay [9] concerns S. cerevisiae Y570 overexpressing C. albicans ABC transporter CDR1B. Kind of assay: MIC, recombinant S. cerevisiae strain Y570 CaCDR1B. It counts as cell-based. The settings on record: SD medium pH 6.8, 30 °C; 80% inhibition of growth. On the procedure:
as §3, §4

Assay [10] concerns S. cerevisiae Y2760 overexpressed H. sapiens wild-type CYP51 (HsCYP51). As to the kind of experiment: MIC, recombinant S. cerevisiae strain Y2760 HsCYP51. It counts as cell-based. The settings on record: Saccharomyces cerevisiae; SD medium pH 6.8, 30 °C; 80% inhibition of growth; read-out: MIC Y2760 HsCYP51. As to the method:
as §3
The HsCYP51 ORF (NP_000777.1) was codon harmonized (ch) using DNA 2.0 for expression in S. cerevisiae and synthesized by ATUM (Newark, Ca, USA). The 3′ end of the ORF was extended to encode EQKI of the ScErg11 C-terminus, followed by a GGR linker and a 6xHis tag. Strain Y2514 was prepared by transforming host strain Y1857 with a transformation cassette including the above construct together with the ScPGK transcription terminator and URA3 selection marker located downstream, bordered by upstream and downstream parts of ScPDR5 gene identical to sequences in ScErg11 over-expressing strain Y941. Strain Y2514 constitutively overexpressed HsCYP51ch-6xHis and URA3 from the ScPDR5 locus.
Strain Y2757 (Y2514, PDR15::HsCPRch-6xHis-LoxP-HIS1-LoxP) was prepared by co-expressing the cognate reductase HsCRP in strain Y2514. Codon harmonisation and synthesis of human NADPH-cytochrome P450 reductase isoform 2 (HsCPRch, NP_001369584.1) ORF was performed by ATUM. The gene was 3′ extended with a sequence encoding GGR-6xHIS. A transformation cassette was prepared by recombinant PCR to include the HsCPRch ORF with 657 nucleotides the ScPDR5 promoter upstream, and the ScPGK terminator followed by the LoxP flanked ScHIS1 selection marker downstream. ScPDR15 specific arms bordering the construct enabled the cassette to be integrated between the nucleotide 441 of the 5′ UTR and nucleotide 1 of the 3′ UTR in PDR15.
Strain Y2758 (Y2757 ΔHIS1) was made using the following steps. Strain Y2757 was transformed with the pSH69 pGAL1-cre plasmid (Euroscarf, Germany) via selection on hygromycin (75 μg mL^−1) containing YPD plates. A single hygromycin positive colony was inoculated in 1% yeast extract, 2% peptone and 2% of galactose broth and incubated for 16 hours at 30 °C with shaking. The diluted culture was then plated on YPD agar and replica-plated on YPD + hygromycin and SD-HIS dropout agar plates. Deletion of the HIS selection marker downstream of HsCPRch-6xHis in the PDR15 locus was confirmed in double His and hygromycin negative isolates by PCR and DNA sequence analysis.
The endogenous ScERG11 ORF in strain Y2758 was removed by transforming with a LoxP- ScHIS1 containing cassette with arms complementing from +387 nucleotides in the 5′UTR and −60 nucleotides in the 3′UTR of the ScERG11 locus, resulting in strain Y2760 (ADΔΔ PDR5::HsCYP51ch-6×HIS-URA3; PDR15::HsCPRch6×HIS-LoxP, ΔERG11-LoxP-HIS1-LoxP).
as §4

Molecules are shown by their SMILES. ≈ marks a conversion by molar mass, not a printed value. Bounds are passed on as bounds.

Experimental findings from article PMC11931565, “Exploring medium and long arm extensions of 1,2,4-triazole derivatives as Candida albicans 14α-demethylase (CYP51) inhibitors” (RSC Medicinal Chemistry, 2025) are described below.

T1 sequence (P10613 whole entry): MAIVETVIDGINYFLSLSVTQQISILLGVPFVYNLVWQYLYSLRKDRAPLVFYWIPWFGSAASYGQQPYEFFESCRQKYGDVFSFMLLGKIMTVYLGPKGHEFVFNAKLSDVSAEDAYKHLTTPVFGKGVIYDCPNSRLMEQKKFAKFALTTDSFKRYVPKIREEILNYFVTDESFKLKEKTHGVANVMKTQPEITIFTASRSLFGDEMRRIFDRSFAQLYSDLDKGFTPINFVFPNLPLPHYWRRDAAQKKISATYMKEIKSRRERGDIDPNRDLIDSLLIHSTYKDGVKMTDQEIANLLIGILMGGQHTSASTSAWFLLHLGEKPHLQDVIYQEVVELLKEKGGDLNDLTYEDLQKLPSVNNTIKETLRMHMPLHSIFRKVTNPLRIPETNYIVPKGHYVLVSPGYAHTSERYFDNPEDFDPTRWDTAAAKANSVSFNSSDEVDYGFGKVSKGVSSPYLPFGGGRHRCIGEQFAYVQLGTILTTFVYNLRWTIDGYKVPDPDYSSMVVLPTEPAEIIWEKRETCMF
T2 sequence (P10613 whole entry): as above

On to `O=C(NCC(O)(Cn1cncn1)c1ccc(Cl)cc1Cl)c1ccc(NC(=S)Nc2ccc(Cl)cc2)cc1` (stereo not drawn) [11b, 4-(3-(4-Chlorophenyl)thioureido)-N-(2-(2,4-dichlorophenyl)-2-hydroxy-3-(1H-1,2,4-triazol-1-yl)propyl)benzamide], for which the MIC in assay [1] was found to be 0.25 µg/mL (≈ 0.434 µM); in assay [2] it was 0.5 µg/mL (≈ 0.868 µM). This molecule also displayed a concentration for half-maximal inhibition (IC50) in assay [3] of 670 nM. Besides, the Kd at native CaCYP51 was 125 ± 41 nM.
In the same order, the values of `O=C(Nc1ccc(Cl)cc1)Nc1ccc(C(=O)NCC(O)(Cn2cncn2)c2ccc(Cl)cc2Cl)cc1` (stereo not drawn) [12b, 4-(3-(4-Chlorophenyl)ureido)-N-(2-(2,4-dichlorophenyl)-2-hydroxy-3-(1H-1,2,4-triazol-1-yl)propyl)benzamide] are 0.125 µg/mL (≈ 0.223 µM), 0.125 µg/mL (≈ 0.223 µM), 470 nM and 137 ± 14 nM.
On to `CC[C@@H]([C@H](C)O)n1ncn(-c2ccc(N3CCN(c4ccc(OC[C@@H]5CO[C@@](Cn6cncn6)(c6ccc(F)cc6F)C5)cc4)CC3)cc2)c1=O` [PCZ, posaconazole, reference compound], for which the MIC is less than 0.03 µg/mL in assay [4]; 0.06 µg/mL in assay [5]; 0.06 µg/mL in assay [6]; less than 0.03 µg/mL in [7]; less than 0.03 µg/mL in assay [8]; 8 µg/mL in assay [9]. Further, the MIC in assay [10] worked out at 8 µg/mL.
On to `O=C(NCC(O)(Cn1cncn1)c1ccc(Cl)cc1)c1ccc(NS(=O)(=O)c2ccc(Cl)cc2)cc1` (stereo not drawn) [14a, N-(2-(4-Chlorophenyl)-2-hydroxy-3-(1H-1,2,4-triazol-1-yl)propyl)-4-((4-chlorophenyl)sulfonamido)benzamide], for which the MIC in assay [1] and in assay [2] was 1 µg/mL (≈ 1.83 µM) throughout.
For `O=C(NCC(O)(Cn1cncn1)c1ccc(Cl)cc1)c1csc(Cl)n1` (stereo not drawn) [7a, 2-Chloro-N-(2-(4-chlorophenyl)-2-hydroxy-3-(1H-1,2,4-triazol-1-yl)propyl)thiazole-4-carboxamide], the MIC in assay [1] and in [2] was 0.25 µg/mL (≈ 0.628 µM) in each case. Moreover, in [3], the IC50 was determined as 770 nM. The Kd on native CaCYP51 turned out to be 635 ± 181 nM.
As to `O=C(NCC(O)(Cn1cncn1)c1ccc(Cl)cc1)c1ccc(NC(=S)Nc2ccc(Cl)cc2)cc1` (stereo not drawn) [11a, N-(2-(4-Chlorophenyl)-2-hydroxy-3-(1H-1,2,4-triazol-1-yl)propyl)-4-(3-(4-chlorophenyl)thioureido)benzamide], the MIC in assay [1] and in assay [2] was 4 µg/mL (≈ 7.39 µM) in each case.
For `CC(=O)c1cccc(C(=O)NCC(O)(Cn2cncn2)c2ccc(Cl)cc2)c1` (stereo not drawn) [6a, 3-Acetyl-N-(2-(4-chlorophenyl)-2-hydroxy-3-(1H-1,2,4-triazol-1-yl)propyl)benzamide], the MIC in [1] and in assay [2] was 0.25 µg/mL (≈ 0.627 µM) throughout. Also, the IC50 in assay [3] came out at 1300 nM. At native CaCYP51, the Kd is 1440 ± 266 nM.
For the molecule `O=C(Nc1ccc(Cl)cc1)Nc1ccc(C(=O)NCC(O)(Cn2cncn2)c2ccc(Cl)cc2)cc1` (stereo not drawn) [12a, N-(2-(4-Chlorophenyl)-2-hydroxy-3-(1H-1,2,4-triazol-1-yl)propyl)-4-(3-(4-chlorophenyl)ureido)benzamide], the figures for the MIC in assay [1] and in assay [2] were 1 µg/mL (≈ 1.9 µM) and 2 µg/mL (≈ 3.81 µM), respectively.
Consider `CC(=O)c1cccc(C(=O)NCC(O)(Cn2cncn2)c2ccc(Cl)cc2Cl)c1` (stereo not drawn) [6b, 3-Acetyl-N-(2-(2,4-dichlorophenyl)-2-hydroxy-3-(1H-1,2,4-triazol-1yl)propyl)benzamide], for which, in assay [1], the MIC is less than 0.03 µg/mL and the “MIC CA14” value is less than 0.03 µg/mL. Moreover, in assay [2], the MIC was less than 0.03 µg/mL and the “MIC SC5314” value worked out at 0.06 µg/mL (≈ 0.138 µM). Also, the IC50 in assay [3] turned out to be 490 nM. Further, the Kd at native CaCYP51 was 229 ± 45 nM.
Regarding `O=C(NCC(O)(Cn1cncn1)c1ccc(Cl)cc1Cl)c1ccc(NS(=O)(=O)c2ccc(Cl)cc2)cc1` (stereo not drawn) [14b, 4-((4-Chlorophenyl)sulfonamido)-N-(2-(2,4-dichlorophenyl)-2-hydroxy-3-(1H-1,2,4-triazol-1-yl)propyl)benzamide], the MIC in assay [1] and in [2] was 0.25 µg/mL (≈ 0.43 µM) in each case. The molecule also showed an IC50 in assay [3] of 780 nM. The Kd at native CaCYP51 amounted to 94 ± 24 nM.

Broadly, the MIC is the smallest concentration in the dilution series that meets the test's criterion for growth inhibition. A word on the IC50: it is the concentration needed to halve the response being measured.
